Laboratory results published in ChEMBL document CHEMBL5465560, “Selectivity Literature for EUbOPEN Chemogenomic Library” (2024).

Key:
[1] = target: T1, Inhibitor of nuclear factor kappa-B kinase subunit alpha (Homo sapiens) (UniProt O15111); assay: Selectivity interaction (ProQinase) EUB0000171b CHUK
T1 sequence (whole entry): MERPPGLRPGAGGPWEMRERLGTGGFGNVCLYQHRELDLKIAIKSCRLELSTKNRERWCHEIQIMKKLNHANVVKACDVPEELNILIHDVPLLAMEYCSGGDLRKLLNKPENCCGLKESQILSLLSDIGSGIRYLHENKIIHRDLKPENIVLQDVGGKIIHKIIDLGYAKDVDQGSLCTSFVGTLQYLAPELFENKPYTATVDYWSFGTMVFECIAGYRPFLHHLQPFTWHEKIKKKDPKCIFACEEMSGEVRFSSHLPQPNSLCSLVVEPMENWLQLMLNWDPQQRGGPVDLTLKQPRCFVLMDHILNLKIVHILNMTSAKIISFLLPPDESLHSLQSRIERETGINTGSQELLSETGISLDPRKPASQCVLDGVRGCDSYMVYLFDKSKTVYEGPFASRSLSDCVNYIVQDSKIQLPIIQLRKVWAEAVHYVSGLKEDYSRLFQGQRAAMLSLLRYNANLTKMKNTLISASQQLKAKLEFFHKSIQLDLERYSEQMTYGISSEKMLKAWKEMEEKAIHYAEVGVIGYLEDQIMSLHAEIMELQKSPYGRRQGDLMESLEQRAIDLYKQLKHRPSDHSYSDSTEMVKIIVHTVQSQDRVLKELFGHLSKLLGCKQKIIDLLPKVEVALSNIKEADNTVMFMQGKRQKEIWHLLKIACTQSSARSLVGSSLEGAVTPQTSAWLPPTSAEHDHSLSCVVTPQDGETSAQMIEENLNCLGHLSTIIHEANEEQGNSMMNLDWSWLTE

[2] = target: Phosphatidylinositol 4,5-bisphosphate 3-kinase catalytic subunit beta isoform (Homo sapiens) (UniProt P42338); assay: Selectivity interaction (Adapta Assay) EUB0001632a PIK3CB; details: at 10 µM
Sequence of Phosphatidylinositol 4,5-bisphosphate 3-kinase catalytic subunit beta isoform (Homo sapiens) (P42338 whole entry, looked up, canonical isoform): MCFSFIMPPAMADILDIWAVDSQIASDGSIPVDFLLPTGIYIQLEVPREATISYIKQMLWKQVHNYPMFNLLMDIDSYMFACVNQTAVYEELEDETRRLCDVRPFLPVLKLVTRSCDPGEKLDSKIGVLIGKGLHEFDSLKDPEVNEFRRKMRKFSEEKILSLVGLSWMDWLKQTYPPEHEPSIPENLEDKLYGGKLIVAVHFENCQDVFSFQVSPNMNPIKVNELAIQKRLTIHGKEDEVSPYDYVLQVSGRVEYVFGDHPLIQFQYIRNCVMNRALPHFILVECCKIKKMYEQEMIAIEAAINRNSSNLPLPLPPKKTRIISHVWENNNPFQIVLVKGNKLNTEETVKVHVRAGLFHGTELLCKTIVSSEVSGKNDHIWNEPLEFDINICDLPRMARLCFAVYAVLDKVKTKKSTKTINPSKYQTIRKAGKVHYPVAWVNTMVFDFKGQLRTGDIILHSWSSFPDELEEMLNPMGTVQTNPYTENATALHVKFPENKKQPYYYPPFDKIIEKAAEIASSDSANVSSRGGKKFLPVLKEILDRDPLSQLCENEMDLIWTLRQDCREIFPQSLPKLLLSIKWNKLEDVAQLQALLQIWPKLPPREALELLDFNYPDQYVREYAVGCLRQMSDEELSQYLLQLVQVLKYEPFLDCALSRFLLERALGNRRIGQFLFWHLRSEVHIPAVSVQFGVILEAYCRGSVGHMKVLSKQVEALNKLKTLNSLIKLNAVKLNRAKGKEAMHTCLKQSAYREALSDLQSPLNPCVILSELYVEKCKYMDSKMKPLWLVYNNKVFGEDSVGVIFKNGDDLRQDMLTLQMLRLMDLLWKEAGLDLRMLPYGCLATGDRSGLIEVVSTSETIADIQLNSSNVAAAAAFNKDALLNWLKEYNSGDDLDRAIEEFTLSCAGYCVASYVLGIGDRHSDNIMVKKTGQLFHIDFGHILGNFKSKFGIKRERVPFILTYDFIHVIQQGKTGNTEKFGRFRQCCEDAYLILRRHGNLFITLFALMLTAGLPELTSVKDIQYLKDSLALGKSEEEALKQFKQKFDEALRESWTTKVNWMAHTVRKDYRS

[3] = target: T2, Aurora kinase A (Homo sapiens) (UniProt O14965); assay: Selectivity interaction (SelectScreen profiling (Invitrogen)) EUB0000607a STK6; details: at 2 µM
T2 sequence (whole entry): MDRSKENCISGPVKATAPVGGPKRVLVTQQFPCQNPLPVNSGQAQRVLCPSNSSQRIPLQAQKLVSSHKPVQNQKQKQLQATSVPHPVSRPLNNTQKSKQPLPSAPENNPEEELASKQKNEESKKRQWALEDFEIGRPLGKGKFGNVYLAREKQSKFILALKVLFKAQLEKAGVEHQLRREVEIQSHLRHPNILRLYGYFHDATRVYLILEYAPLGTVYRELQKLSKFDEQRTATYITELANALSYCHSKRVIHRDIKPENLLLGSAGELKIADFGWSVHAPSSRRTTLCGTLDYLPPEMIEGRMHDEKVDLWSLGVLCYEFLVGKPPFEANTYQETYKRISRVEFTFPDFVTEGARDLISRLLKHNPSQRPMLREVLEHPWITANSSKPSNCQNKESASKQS

[4] = target: T3, Tyrosine-protein kinase receptor TYRO3 (Homo sapiens) (UniProt Q06418); assay: Selectivity interaction (KinomeScan (DiscoverX)) EUB0000695a TYRO3; details: at 100 nM
T3 sequence (whole entry): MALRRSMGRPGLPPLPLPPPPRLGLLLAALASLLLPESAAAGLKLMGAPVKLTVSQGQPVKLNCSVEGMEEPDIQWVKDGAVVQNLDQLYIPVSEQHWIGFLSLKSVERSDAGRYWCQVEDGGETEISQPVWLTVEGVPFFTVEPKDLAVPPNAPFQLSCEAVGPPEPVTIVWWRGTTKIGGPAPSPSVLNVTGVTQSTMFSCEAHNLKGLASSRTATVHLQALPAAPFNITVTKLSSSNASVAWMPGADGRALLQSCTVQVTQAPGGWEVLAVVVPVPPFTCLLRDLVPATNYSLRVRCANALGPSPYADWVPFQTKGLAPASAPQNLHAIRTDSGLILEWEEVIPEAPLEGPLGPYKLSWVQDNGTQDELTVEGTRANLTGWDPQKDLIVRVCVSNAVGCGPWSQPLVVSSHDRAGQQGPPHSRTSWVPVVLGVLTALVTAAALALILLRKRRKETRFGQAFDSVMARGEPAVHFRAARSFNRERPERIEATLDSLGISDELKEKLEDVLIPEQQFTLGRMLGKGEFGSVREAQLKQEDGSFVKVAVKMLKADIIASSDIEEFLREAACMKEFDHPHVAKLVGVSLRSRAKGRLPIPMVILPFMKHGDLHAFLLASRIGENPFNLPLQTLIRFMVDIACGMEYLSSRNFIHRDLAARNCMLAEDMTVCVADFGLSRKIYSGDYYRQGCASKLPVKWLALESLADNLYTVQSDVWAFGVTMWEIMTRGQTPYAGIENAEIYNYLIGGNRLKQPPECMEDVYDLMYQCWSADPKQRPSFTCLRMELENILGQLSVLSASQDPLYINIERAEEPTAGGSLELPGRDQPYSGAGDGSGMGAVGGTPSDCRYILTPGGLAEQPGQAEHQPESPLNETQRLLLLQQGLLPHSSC

[5] = target: T4, Phosphatidylinositol 5-phosphate 4-kinase type-2 gamma (Homo sapiens) (UniProt Q8TBX8); assay: Selectivity interaction (KinomeScan (DiscoverX)) EUB0000595a PIP4K2C; details: at 10 µM
T4 sequence (whole entry): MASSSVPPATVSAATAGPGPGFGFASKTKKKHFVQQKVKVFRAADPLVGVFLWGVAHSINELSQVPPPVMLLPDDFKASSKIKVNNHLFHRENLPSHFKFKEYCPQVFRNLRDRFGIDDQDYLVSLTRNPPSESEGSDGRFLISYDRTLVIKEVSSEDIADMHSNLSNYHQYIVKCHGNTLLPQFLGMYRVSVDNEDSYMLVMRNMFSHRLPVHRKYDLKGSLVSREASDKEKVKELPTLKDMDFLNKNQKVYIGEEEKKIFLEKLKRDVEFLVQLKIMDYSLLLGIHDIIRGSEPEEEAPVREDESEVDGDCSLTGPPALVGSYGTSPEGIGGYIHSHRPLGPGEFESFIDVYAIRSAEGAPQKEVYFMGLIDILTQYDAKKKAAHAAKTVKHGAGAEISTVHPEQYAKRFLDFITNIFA

[6] = target: DNA (cytosine-5)-methyltransferase 3B (Homo sapiens) (UniProt Q9UBC3); details: at 10 µM

SMILES: C=CC(=O)Nc1cccc(C(=O)Nc2ccc(Nc3cc(-c4[nH]c(SC)nc4C)ccn3)cc2)c1
- % of control ([1]; at 1 µM): 78%
- % of control ([1]; at 5 µM): 57%

SMILES: Cn1cc(-n2cnc3c(NCc4nc5cc(Cl)c(Cl)cc5[nH]4)nc(N4CCOCC4)nc32)cn1
- % of inhibition [2]: 11.6%

SMILES: CNC(=O)Nc1ccc(-c2nc(N3CC4CCC(C3)O4)c3cnn(C4CCC5(CC4)OCCO5)c3n2)cc1
- % of inhibition [3]: 0%

SMILES: Cc1cc(F)c(C(=O)Nc2cccc(-c3nncn3C(C)C)n2)cc1-n1cnc(C2CC2)c1
- % of control [4]: 86%

SMILES: COCC(=O)NC/C=C/c1ccc2ncnc(Nc3ccc(Oc4ccc(C)nc4)c(C)c3)c2c1 [CP-724714]
- % of control [5]: 84%

SMILES: CNCCN1CCC(c2cc(CN(C)C(=O)c3cccc(Oc4ccccc4)c3)ccn2)CC1
- % activity [6]: > 90%
